Results taken from ChEMBL document CHEMBL3351438, “Further optimization of the M5 NAM MLPCN probe ML375: tactics and challenges” (Bioorg Med Chem Lett, 2015).
“And” between values parts separate entries of the source, which are not always exact repeats. Equal values may be shown once. The source made the active and inactive calls. No cut-off for these calls is given here.

Key:
[1] = Fraction unbound in Sprague-Dawley rat brain; assay type: ADME, tissue-based; details: brain tissue
[2] = biological target: T1, Muscarinic acetylcholine receptor M5 (Homo sapiens, UniProt P08912); test: Negative allosteric modulation of human muscarinic acetylcholine receptor M5 expressed in CHO cells assessed as inhibition of acetylcholine-induced calcium mobilization incubated for 150 secs prior to acetylcholine induction by Fluo4AM staining-based fluorescence assay
T1 sequence (P08912 whole entry): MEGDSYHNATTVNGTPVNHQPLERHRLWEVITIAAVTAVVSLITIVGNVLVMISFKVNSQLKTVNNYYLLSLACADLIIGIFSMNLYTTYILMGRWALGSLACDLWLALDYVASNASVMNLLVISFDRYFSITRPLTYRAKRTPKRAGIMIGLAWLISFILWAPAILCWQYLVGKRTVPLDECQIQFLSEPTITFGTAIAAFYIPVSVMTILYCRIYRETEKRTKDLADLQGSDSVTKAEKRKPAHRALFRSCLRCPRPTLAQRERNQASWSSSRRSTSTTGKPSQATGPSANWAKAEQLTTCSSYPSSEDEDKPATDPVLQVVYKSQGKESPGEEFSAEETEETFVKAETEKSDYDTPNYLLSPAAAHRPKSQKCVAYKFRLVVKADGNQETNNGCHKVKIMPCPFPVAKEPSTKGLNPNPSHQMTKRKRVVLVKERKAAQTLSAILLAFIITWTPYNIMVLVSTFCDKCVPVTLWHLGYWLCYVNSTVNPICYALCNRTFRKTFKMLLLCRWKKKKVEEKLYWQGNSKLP

[3] = (§1) Fraction unbound in Sprague-Dawley rat plasma; assay type: ADME, cell-free; details: Sprague-Dawley
[4] = biological target: T2, Muscarinic acetylcholine receptor M5 (Rattus norvegicus, UniProt P08911); test: Negative allosteric modulation of rat muscarinic acetylcholine receptor M5 expressed in CHO cells assessed as inhibition of acetylcholine-induced calcium mobilization incubated for 150 secs prior to acetylcholine induction by Fluo4AM staining-based fluorescence assay; assay type: functional, cell-based
T2 sequence (P08911 whole entry): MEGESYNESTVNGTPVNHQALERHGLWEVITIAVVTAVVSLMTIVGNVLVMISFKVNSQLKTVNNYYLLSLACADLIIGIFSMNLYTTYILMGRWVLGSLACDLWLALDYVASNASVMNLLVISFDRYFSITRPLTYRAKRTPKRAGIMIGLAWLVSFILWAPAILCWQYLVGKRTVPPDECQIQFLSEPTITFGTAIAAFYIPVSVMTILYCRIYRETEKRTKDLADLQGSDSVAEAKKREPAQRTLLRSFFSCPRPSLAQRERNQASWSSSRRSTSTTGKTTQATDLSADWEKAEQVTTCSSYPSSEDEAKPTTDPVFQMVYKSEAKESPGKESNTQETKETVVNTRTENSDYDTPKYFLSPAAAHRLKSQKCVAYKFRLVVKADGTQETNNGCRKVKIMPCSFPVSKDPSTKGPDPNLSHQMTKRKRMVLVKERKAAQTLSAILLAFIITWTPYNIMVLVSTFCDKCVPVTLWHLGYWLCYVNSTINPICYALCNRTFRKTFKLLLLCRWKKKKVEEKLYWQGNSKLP

[5] = Intrinsic clearance in human liver microsomes; assay type: ADME; details: read-out: CLH
[6] = Intrinsic clearance in human hepatocytes; assay type: ADME, cell-based, Hepatocyte; details: read-out: CLH
[7] = Intrinsic clearance in rat liver microsomes; assay type: ADME; details: read-out: CLH
[8] = Intrinsic clearance in rat hepatocytes; assay type: ADME, cell-based, Hepatocyte; details: read-out: CLH
[9] = Half life in Sprague-Dawley rat at 1 mg/kg, iv; assay type: ADME, organism-based; set-up: dose 1 mg/kg, route intravenous; details: in vivo
[10] = Volume of distribution at steady state in Sprague-Dawley rat at 1 mg/kg, iv; assay type: ADME, organism-based; set-up: dose 1 mg/kg, route intravenous; details: in vivo, read-out: Vdss
[11] = Mean residence time in Sprague-Dawley rat at 10 mg/kg, po; assay type: ADME, organism-based; set-up: dose 10 mg/kg, route oral; details: in vivo
[12] = Tmax in Sprague-Dawley rat at 10 mg/kg, po; assay type: ADME, organism-based; set-up: dose 10 mg/kg, route oral; details: in vivo
[13] = test system: Rattus norvegicus; test: AUC (0 to infinity) in Sprague-Dawley rat at 10 mg/kg, po; assay type: ADME, organism-based, Plasma; set-up: time infinity, dose 10 mg/kg, route oral; details: in vivo
[14] = test system: Rattus norvegicus; test: Oral bioavailability in Sprague-Dawley rat at 10 mg/kg; assay type: ADME, organism-based; details: in vivo
[15] = AUC (0 to infinity) in Sprague-Dawley rat at 10 mg/kg, po pretreated with 56.6 mg/kg, po 1-aminobenzotriazole; assay type: ADME, organism-based; set-up: dose 10 mg/kg, time infinity, route oral; details: plasma
[16] = Oral bioavailability in Sprague-Dawley rat at 10 mg/kg pretreated with 56.6 mg/kg, po 1-aminobenzotriazole; assay type: ADME, organism-based; details: in vivo
[17] = Cmax in Sprague-Dawley rat in plasma at 10 mg/kg, po pretreated with 56.6 mg/kg, po 1-aminobenzotriazole; assay type: ADME, organism-based; set-up: dose 10 mg/kg, route oral
[18] = test system: Plasma; test: fCmax in Sprague-Dawley rat plasma at 10 mg/kg, po pretreated with 56.6 mg/kg, po 1-aminobenzotriazole; assay type: ADME, organism-based; details: in vivo
[19] = Cmax in Sprague-Dawley rat in brain at 10 mg/kg, po pretreated with 56.6 mg/kg, po 1-aminobenzotriazole; assay type: ADME, organism-based; set-up: dose 10 mg/kg, route oral
[20] = (§2) Fraction unbound in human plasma; assay type: ADME, cell-free
[21] = biological target: T3, Muscarinic acetylcholine receptor M5 (Homo sapiens) (UniProt P08912); details: CHO
T3 sequence (whole entry): T1 sequence (P08912 whole entry)

[22] = test system: Plasma; test: as §1; assay type: ADME, cell-free
[23] = test system: Plasma; test: as §2; assay type: ADME, cell-free

SMILES	IC50 [2]	further results
COc1ccc([C@@]23c4ccccc4C(=O)N2CCN3C(=O)c2cc(F)c(F)c(F)c2)cc1C	264 nM	fraction unbound [1]: 0.006; fraction unbound [3]: 0.031; IC50 ([4]; read-out: IC50): 516 nM; CLint scaled [5]: 359 mL/min/kg; CLint scaled [6]: 19.8 mL/min/kg; CLint scaled [7]: 332 mL/min/kg; CLint scaled [8]: 57.8 mL/min/kg; half-life [9]: 1.08 h; Vd [10]: 4.9 L/kg; MRT [11]: 6.5 h; Tmax [12]: 2.8 h; AUC [13]: 3660 ng·h/mL; F [14]: 2%; AUC(0-inf) [15]: 17700 ng·h/mL; bioavailability [16]: 9.5%; Cmax [17]: 2 µM; fCmax [18]: 62 nM; Cmax [19]: 5.4 µM
COc1ccc([C@]23c4ccccc4C(=O)N2CCN3C(=O)c2cc(F)c(F)c(F)c2)cc1C	–	IC50 ([2]; cho): Not Active; fraction unbound [20]: 0.013; IC50 ([4]; cho): Not Active; pIC50 [21]: inactive
[2H]C([2H])([2H])Oc1ccc([C@@]23c4ccccc4C(=O)N2CCN3C(=O)c2cc(F)c(F)c(F)c2)cc1C	–	CLint scaled [6]: 16.3 mL/min/kg; CLint scaled [7]: 275 mL/min/kg; CLint scaled [8]: 55.8 mL/min/kg
O=C(c1ccc(F)c(F)c1)N1CCN2C(=O)c3ccccc3C12c1ccc(Cl)cc1 (racemic)	–	Fu [22]: 0.031; Fu [23]: 0.015
CC(C)Oc1ccc(C23c4ccccc4C(=O)N2CCN3C(=O)c2ccc(F)c(F)c2)cc1 (racemic)	> 30000 nM	–
O=C(c1ccc(F)c(F)c1)N1CCN2C(=O)c3ccccc3C12c1ccc2c(c1)OCO2 (racemic)	1300 nM	–
COc1ccc(C23c4ccccc4C(=O)N2CCN3C(=O)c2ccc(F)c(F)c2)cc1F (racemic)	3300 nM	–
COc1ccc(C23c4ccccc4C(=O)N2CCN3C(=O)c2ccc(F)c(F)c2)cc1Cl (racemic)	5500 nM	–
COc1ccc(C23c4ccccc4C(=O)N2CCN3C(=O)c2ccc(F)c(F)c2)cc1C (racemic)	1200 nM	–
COc1cc(C23c4ccccc4C(=O)N2CCN3C(=O)c2ccc(F)c(F)c2)ccc1F (racemic)	2700 nM	–
COc1cc(C23c4ccccc4C(=O)N2CCN3C(=O)c2ccc(F)c(F)c2)ccc1Cl (racemic)	2000 nM	–
COc1cc(C23c4ccccc4C(=O)N2CCN3C(=O)c2ccc(F)c(F)c2)ccc1C (racemic)	1300 nM	–
CCOc1ccc(C23c4ccccc4C(=O)N2CCN3C(=O)c2cc(F)c(F)c(F)c2)cc1 (racemic)	> 30000 nM	–
CC(C)Oc1ccc(C23c4ccccc4C(=O)N2CCN3C(=O)c2cc(F)c(F)c(F)c2)cc1 (racemic)	2400 nM	–
O=C(c1cc(F)c(F)c(F)c1)N1CCN2C(=O)c3ccccc3C12c1ccc2c(c1)OCO2 (racemic)	1000 nM	–
COc1ccc(C23c4ccccc4C(=O)N2CCN3C(=O)c2cc(F)c(F)c(F)c2)cc1F (racemic)	> 30000 nM	–
COc1ccc(C23c4ccccc4C(=O)N2CCN3C(=O)c2cc(F)c(F)c(F)c2)cc1Cl (racemic)	1400 nM	–
COc1ccc(C23c4ccccc4C(=O)N2CCN3C(=O)c2cc(F)c(F)c(F)c2)cc1C (racemic)	510 nM	IC50 ([4]; read-out: IC50): 963 nM
COc1cc(C23c4ccccc4C(=O)N2CCN3C(=O)c2cc(F)c(F)c(F)c2)ccc1F (racemic)	700 nM	–
COc1cc(C23c4ccccc4C(=O)N2CCN3C(=O)c2cc(F)c(F)c(F)c2)ccc1Cl (racemic)	1600 nM	–
COc1cc(C23c4ccccc4C(=O)N2CCN3C(=O)c2cc(F)c(F)c(F)c2)ccc1C (racemic)	900 nM	–
CCOc1ccc(C23c4ccccc4C(=O)N2CCN3C(=O)c2ccc(OC(C)C)cc2)cc1 (racemic)	4100 nM	–
CC(C)Oc1ccc(C(=O)N2CCN3C(=O)c4ccccc4C23c2ccc(OC(C)C)cc2)cc1 (racemic)	1900 nM	–
CC(C)Oc1ccc(C(=O)N2CCN3C(=O)c4ccccc4C23c2ccc3c(c2)OCO3)cc1 (racemic)	1100 nM	–
COc1ccc(C23c4ccccc4C(=O)N2CCN3C(=O)c2ccc(OC(C)C)cc2)cc1F (racemic)	3200 nM	–
COc1ccc(C23c4ccccc4C(=O)N2CCN3C(=O)c2ccc(OC(C)C)cc2)cc1Cl (racemic)	3300 nM	–
COc1ccc(C23c4ccccc4C(=O)N2CCN3C(=O)c2ccc(OC(C)C)cc2)cc1C (racemic)	1300 nM	–

SMILES	IC50 [2]	further results
COc1cc(C23c4ccccc4C(=O)N2CCN3C(=O)c2ccc(OC(C)C)cc2)ccc1F (racemic)	1300 nM	–
COc1cc(C23c4ccccc4C(=O)N2CCN3C(=O)c2ccc(OC(C)C)cc2)ccc1Cl (racemic)	6400 nM	–
COc1cc(C23c4ccccc4C(=O)N2CCN3C(=O)c2ccc(OC(C)C)cc2)ccc1C (racemic)	2200 nM	–
COc1ccccc1C(=O)N1CCN2C(=O)c3ccccc3C12c1ccc(Cl)cc1 (racemic)	> 10000 nM	–
COc1cccc(C(=O)N2CCN3C(=O)c4ccccc4C23c2ccc(Cl)cc2)c1 (racemic)	6600 nM	–
COc1ccc(C(=O)N2CCN3C(=O)c4ccccc4C23c2ccc(Cl)cc2)cc1 (racemic)	1800 nM	–
CCOc1ccc(C(=O)N2CCN3C(=O)c4ccccc4C23c2ccc(Cl)cc2)cc1 (racemic)	850 nM	–
CC(C)Oc1ccc(C(=O)N2CCN3C(=O)c4ccccc4C23c2ccc(Cl)cc2)cc1 (racemic)	790 nM	–
O=C(c1cc(F)c(F)c(F)c1)N1CCN2C(=O)c3ccccc3C12c1ccc(Cl)cc1 (racemic)	610 nM	–
CN(C)c1ccc(C(=O)N2CCN3C(=O)c4ccccc4C23c2ccc(Cl)cc2)cc1 (racemic)	> 10000 nM	–
O=C(c1ccc(F)nc1)N1CCN2C(=O)c3ccccc3C12c1ccc(Cl)cc1 (racemic)	> 10000 nM	–
O=C(c1ccnc(F)c1)N1CCN2C(=O)c3ccccc3C12c1ccc(Cl)cc1 (racemic)	5800 nM	–
O=C(c1ccnnc1)N1CCN2C(=O)c3ccccc3C12c1ccc(Cl)cc1 (racemic)	> 10000 nM	–
O=C(c1cc(F)nc(F)c1)N1CCN2C(=O)c3ccccc3C12c1ccc(Cl)cc1 (racemic)	> 10000 nM	–
COc1ccccc1C12c3ccccc3C(=O)N1CCN2C(=O)c1ccc(F)c(F)c1 (racemic)	5620 nM and 5500 nM	–
COc1cccc(C23c4ccccc4C(=O)N2CCN3C(=O)c2ccc(F)c(F)c2)c1 (racemic)	1600 nM	–
COc1ccc(C23c4ccccc4C(=O)N2CCN3C(=O)c2ccc(F)c(F)c2)cc1 (racemic)	1300 nM	Fu [22]: 0.064; Fu [23]: 0.037
O=C(c1ccc(F)c(F)c1)N1CCN2C(=O)c3ccccc3C12c1ccc(Oc2ccccc2)cc1 (racemic)	> 10000 nM	–
O=C(c1ccc(F)c(F)c1)N1CCN2C(=O)c3ccccc3C12C1CCCCC1 (racemic)	2100 nM	Fu [22]: 0.016; Fu [23]: 0.008
O=C(c1ccc(F)c(F)c1)N1CCN2C(=O)c3ccccc3C12C1CCCC1 (racemic)	2400 nM	–
O=C(c1ccc(F)c(F)c1)N1CCN2C(=O)c3ccccc3C12C1CCC1 (racemic)	> 10000 nM	–
O=C(c1ccc(F)c(F)c1)N1CCN2C(=O)c3ccccc3C12C1CC1 (racemic)	> 10000 nM	–
O=C(c1ccc(F)c(F)c1)N1CCN2C(=O)c3ccccc3C12C1CCOCC1 (racemic)	> 10000 nM	–
O=C(c1ccc(F)c(F)c1)N1CCN2C(=O)c3ccccc3C12c1ccccn1 (racemic)	> 10000 nM	–
O=C(c1ccc(F)c(F)c1)N1CCN2C(=O)c3ccccc3C12c1cccnc1 (racemic)	> 10000 nM	–
O=C(c1ccc(F)c(F)c1)N1CCN2C(=O)c3ccccc3C12c1ccncc1 (racemic)	> 10000 nM	–
CCOc1ccc(C23c4ccccc4C(=O)N2CCN3C(=O)c2ccc(F)c(F)c2)cc1 (racemic)	3200 nM	–
